# Test results published in US9901625B2, “Methods of regulating uptake and transcellular transport of leukocytes and therapeutics” (University of Maryland, College Park, priority 2011, dated 2018).
# Assays:
# [1] = test system: activated HUVEC monolayers; test: Transport of WBCs across activated HUVEC monolayers on a porous membrane (SDF1-α chemoattractant); format: cell-based, human; settings: for WBC transmigration across HUVEC monolayer: 30 min, 37° C., WBCs counted in bottom chamber; for WBC capacity to transmigrate across the porous filter in the absence of an endothelial monolayer: no HUVEC monolayer
# Description: A confluent EC monolayer from human umbilical vein ECs was grown on a porous membrane through which peripheral lymphocytes isolated from healthy individuals (wild-type WBCs) can transmigrate, driven by the presence of the chemoattractant SDF1-α in the chamber underneath the ECs. Under control conditions, 77.7±2.3% wild-type WBCs underwent transmigration by 30 min, which was abrogated when K562 cells lacking the ICAM-1- and VCAM-1-binding integrins LFA-1 and VLA-4, respectively, were used (FIG. 1A). Transport of either peripheral blood lymphocytes (control) or K562 cells lacking ICAM-1- and VCAM-1-binding integrins of white blood cells (WBCs) across activated HUVEC monolayers assessed at 37° C. by counting WBCs in the bottom chamber underneath HUVEC, 30 min after adding WBCs to the upper chamber above HUVECs (black bars). Transmigration was alternatively performed prior (control) or after blocking integrins LFA-1 or VLA-4 on peripheral blood lymphocytes using monoclonal antibodies. The horizontal dashed line in FIG. 1A represents WBC transmigration at 4° C.
# Data are normalized to control values, and represent mean and standard errors of the mean (n≧3 experiments). *, P≦0.001 by Student's t test.
# Further, transport of activated peripheral blood lymphocytes (WBCs) across activated HUVEC monolayers was assessed at 37° C. by counting WBCs in the bottom chamber underneath HUVEC 30 min after adding WBCs to the upper chamber above HUVECs (FIG. 2A black bars). Absence of HUVEC monolayer was a control (FIG. 2A white bars). Transmigration was performed in the absence (control) or presence of filipin, methyl-β-cyclodextrin (Cdx) or amiloride. In accord with previous works (Tilghman R W, et al. (2002) FEBS Lett 525:83-87; Barreiro O, et al. (2005) Blood 105:2852-2861; Millan et al., 2006), WBC transmigration was inhibited by methyl-β-cyclodextrin (Cdx; 48.1±4.8% of control; FIG. 2A), an agent that depletes cholesterol from cells. […] Instead, amiloride, which affects Na^+/H^+ exchangers (Kleyman T R, et al. (1988) J Membr Biol 105:1-21) and inhibits CAM-mediated endocytosis (Muro S, et al. (2003) J Cell Sci 11 6:1599-1609), reduced WBC transmigration even to a greater extent than Cdx (38.6±3.7% of control; FIG. 2A).
# [2] = test system: HUVECs; test: Endocytosis of anti-ICAM beads by ECs in culture (HUVECs); format: cell-based, human; settings: values normalized to controls
# [3] = test system: activated HUVECs; test: Binding of activated WBCs to activated HUVECs (fluorescence microscopy); format: cell-based, human; settings: 30 min, 37° C.
# Description: The horizontal dashed line represents binding of negative control K562 WBCs, which lack ICAM-I- and VCAM-1-binding integrins. Data are normalized to control values, and represent mean and standard errors of the mean (n≧3 experiments). *, P≦0.001 by Student's t test.
# [4] = test system: activated HUVECs; test: Recruitment of molecules at sites of endothelial ICAM-1 engagement by anti-ICAM beads; format: cell-based, human; settings: 15 min
# [5] = test system: activated HUVECs; test: Paracellular vs transcellular transmigration of WBCs over HUVECs on coverslips (podosome scoring); format: cell-based, human; settings: for WBC TEM (WBCs projecting podosomes into/under HUVECs): 30 min, 37° C.; for arrested WBCs located away from the EC borders / diapedesis of WBCs located away from the EC borders: EC center; for paracellular TEM (transmigrating WBCs at EC border) / transcellular TEM (transmigrating WBCs at EC center): normalized to control; for paracellular TEM (transmigrating WBCs at EC border): <3 μm from cell border; for transcellular TEM (transmigrating WBCs at EC center): ≧3 μm from cell border
# Description: The role of lipid domains and CAM-mediated endocytosis in paracellular versus transcellular diapedesis of leukocytes was examined. To distinguish between paracellular and transcellular TEM, WBCs were labeled with green-fluorescent calcein and diapedesis was evaluated by fluorescence and scanning electron microscopy as WBCs projecting podosomes (versus round-shaped WBCs) into or under ECs growing over glass coverslips (FIG. 3; FIG. 4).
# Data are normalized to control values (horizontal dashed lines) and represent mean and standard errors of the mean (n≧30 WBCs). *, P≦0.05; **, P≦0.01; ***, P≦0.001 by Student's t test.
# [6] = test system: ICAM-1; settings: cited from earlier work
Molecule,WBC transmigration across HUVEC monolayer [1],WBC capacity to transmigrate across the porous filter in the absence of an endothelial monolayer [1],Internalization (%) of anti-ICAM beads [2],affected WBC binding to ECs [3],ICAM-1 enrichment in areas of bead engulfment [4],WBC TEM (WBCs projecting podosomes into/under HUVECs) [5],arrested WBCs located away from the EC borders [5],diapedesis of WBCs located away from the EC borders [5],paracellular TEM (transmigrating WBCs at EC border) [5],transcellular TEM (transmigrating WBCs at EC center) [5],ceramide enrichment in areas of bead engulfment [4],level of transcellular TEM ([5]; FIG. 14C),paracellular TEM ([5]; FIG. 14C),Formation of endocytic vesicles upon ICAM-1 engagement by anti-ICAM particles [6]
N=C(N)NC(=O)c1nc(Cl)c(N)nc1N [amiloride],38.6±3.7 % of control,Neither Cdx nor amiloride impaired,13.8 ± 3.3 %,Neither,22.9 % decrease,63.8±7.3 % of control,209.1±68.1 % of control,56.0±27.5 % of control,139.6±34.1%,65.5±29.7%,,,,
"CCN(c1nc(N)c(C(=O)N=C(N)N)nc1Cl)C(C)C [EIPA, 5′-(N-ethyl-N-isopropyl)amiloride]",,,,,,,,,,,35.6 % decrease,,,
CN(C)CCCN1c2ccccc2CCc2ccccc21 [imipramine],,,61.9 ± 6.7 %,,,46.6±7.6 % of control,,,,,23.6 % decrease,decreased the level of transcellular TEM,paracellular TEM increased,
CCCCC[C@@H](O)[C@H]1C(=O)O[C@H](C)[C@@H](O)/C=C/C=C/C=C/C=C/C=C(\C)[C@@H](O)C[C@H](O)C[C@H](O)C[C@H](O)C[C@H](O)C[C@H](O)C[C@@H]1O [filipin],88.0±7.7 % of control,,107.2 ± 1.5%,,,108.7±8.6 % of control,,,,,,,,not affected
methyl-β-cyclodextrin [Cdx],48.1±4.8 % of control,Neither Cdx nor amiloride impaired,,Neither,43 % decrease,80.5±6.8 % of control,170.5±36.2 % of control,71.5±14.6 % of control,124.9±17.1%,78.3±14.9%,,,,
